This note sets out measurements from patent EP4790066A1, “GLP-1R/GIPR/GCGR TRIPLE AGONIST ANALOGUE AND USE THEREOF” (Shenzhen Bay Laboratory, priority 2023, dated 2025).

One data set addresses T1, GCGR (Homo sapiens, UniProt P47871).
T1 construct: expressed in transfected cells
Put plainly: CreLuc method (CRE-luciferase reporter), 293HEK/pGM-CREB-L-Luc/GCGR pool. It is filed as cell-based. The following applies: 6 h incubation, read-out: EC50 (pM) for each receptor GCGR. An outline of the steps: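 Stable HEK293 pools co-expressing each receptor with a CRE-luciferase reporter were plated at 20,000 cells/well in freestyle medium and treated with compound dilution series for 6 h at 37 °C. Luminescence was read with ONE-GLO to derive EC50.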
Background: In a reporter assay the amount or activity of a reporter protein is the signal.

In data set [1] the target is T2, GLP-1R (Homo sapiens, UniProt P43220).
T2 construct: expressed in transfected cells
The data set is described as follows: cAMP method (HTRF cAMP detection kit), HEK293/pGM-CREB-L-Luc/GLP-1 pool. In kind it is cell-based. The following applies: read-out: EC50 (pM) for each receptor GLP-1R. (Time-resolved FRET reads energy transfer from a long-lived donor to a nearby acceptor.)

A further data set deals with T3, GIPR (Homo sapiens, UniProt P48546).
T3 construct: expressed in transfected cells
T3 sequence (P48546 22-466): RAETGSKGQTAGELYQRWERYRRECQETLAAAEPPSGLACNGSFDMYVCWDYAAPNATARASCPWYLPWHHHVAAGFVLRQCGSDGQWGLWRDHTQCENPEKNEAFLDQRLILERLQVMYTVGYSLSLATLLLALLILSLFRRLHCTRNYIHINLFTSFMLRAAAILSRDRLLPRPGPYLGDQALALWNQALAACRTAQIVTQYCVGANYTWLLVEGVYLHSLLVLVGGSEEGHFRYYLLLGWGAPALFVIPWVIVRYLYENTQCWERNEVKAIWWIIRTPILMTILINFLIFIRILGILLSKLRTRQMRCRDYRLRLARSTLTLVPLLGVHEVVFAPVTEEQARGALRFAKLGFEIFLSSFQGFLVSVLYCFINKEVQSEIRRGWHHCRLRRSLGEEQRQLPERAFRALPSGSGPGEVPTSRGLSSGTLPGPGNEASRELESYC
Put plainly: cAMP method (HTRF cAMP detection kit), HEK293/pGM-CREB-L-Luc/GIP pool. The following applies: read-out: EC50 (pM) for each receptor GIPR. In kind it is cell-based.

A short description of the next data set: in vivo. More on the design: species or system adult male cynomolgus monkeys. The note with it: male, cynomolgus monkey, 0.2 mg/kg. The procedure:
The pharmacokinetic behavior of TG52 in non-rodents was tested. The specific steps are as follows:
The target peptide derivative TG52 to be tested was administered to adult male cynomolgus monkeys via subcutaneous and intravenous injections (0.2 mg/kg, with PBS as the drug vehicle) as a single dose, respectively. Whole blood samples were collected from the jugular vein or other appropriate vein at the following time points after administration: for SC, 0 min, 30 min, 1 h, 3 h, 7 h, 24 h, 48 h, 72 h, 120 h, 168 h, 216 h, and 264 h; for IV, 0 min, 5 min, 30 min, 1 h, 3 h, 7 h, 24 h, 48 h, 72 h, 120 h, 168 h, 216 h, and 264 h. 0.2 mL of blood was collected and transferred into a labeled EDTA-K2 anticoagulant tube. The tube was gently inverted to ensure thorough mixing of the anticoagulant (EDTA-K2) with the blood and immediately placed on wet ice. Plasma separation was performed as soon as possible by centrifugation under the following conditions: 4°C, 6800xg, for 6 min. The plasma samples were stored in a refrigerator at no higher than -20°C and used for analysis when needed. Analysis of the drug content in the blood samples was performed using the analytical method described above. Table 5C: Pharmacokinetic parameters of TG52 in cynomolgus monkeys

In data set [2] the target is T2, GLP-1R. The data set is described as follows: cell-based. In kind it is cell-based. The following applies: for EC50: GLP-1R CreLuc. How it is done: The steps are as follows:
The stably transfected cell line HEK293/pGM-CREB-L-Luc/GLP-1R pool was constructed. […] The corresponding test cells were selected, digested (for 1 min), dispersed by pipetting, and centrifuged (1000 rpm, 5 min). The culture medium was discarded, and the cells were suspended using Freestyle culture medium, centrifuged and counted. The cells were diluted to a cell density of 5 x 10^5 cells/mL using freestyle culture medium (0% FBS) and culture medium containing 10% FBS, respectively. The cells were then added to the detection wells of a 384-well plate (40 µL/20,000 cells/well). Echo was used to add the corresponding analyte dilution series. The cell plate was incubated at 37°C and 5% CO2 for 6 h, and then ONE-GLO (20 µL/well) was added for detection. It was kept in the dark for 3 min, and then a chemiluminescent microplate reader was used for determination. The plate was read within 30 min, and the determination results were recorded. […]

*1 amine or outer side, *2 acyl side, *3 side chain or, on linkers, in order; H or OH if unused. Where a SMILES comes first, the peptide text is derived from it. Bridges are numbered along the chain shown (N, C = ends). [ ]: non-standard residue; d: D form. X1 = O=C(O)CCCCCCCCCCCCCCCCCCC(=O)N[C@@H](CCCCNC(=O)COCCOCCNC(=O)COCCOCCNC(=O)CCC(=O)N(CCNC(=O)C[*:1])CCNC(=O)C[*:2])C(=O)O; Phe(2-F) = N[C@@H](Cc1ccccc1F)C(=O)O; Iva = CC[C@](C)(N)C(=O)O; Aib = CC(C)(N)C(=O)O

T2 sequence (P43220 24-463, species assumed): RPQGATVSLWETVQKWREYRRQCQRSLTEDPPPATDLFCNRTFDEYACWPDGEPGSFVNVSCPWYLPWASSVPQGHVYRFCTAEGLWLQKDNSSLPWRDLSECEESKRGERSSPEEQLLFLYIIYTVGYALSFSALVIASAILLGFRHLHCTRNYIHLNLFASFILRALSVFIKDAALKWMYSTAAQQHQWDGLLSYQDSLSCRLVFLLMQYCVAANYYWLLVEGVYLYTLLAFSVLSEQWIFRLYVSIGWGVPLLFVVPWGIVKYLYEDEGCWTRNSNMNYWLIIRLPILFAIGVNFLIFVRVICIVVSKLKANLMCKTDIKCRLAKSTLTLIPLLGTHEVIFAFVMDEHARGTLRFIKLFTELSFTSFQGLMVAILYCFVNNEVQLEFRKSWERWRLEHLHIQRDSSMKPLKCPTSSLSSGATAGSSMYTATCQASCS
T1 sequence (P47871 26-477, species assumed): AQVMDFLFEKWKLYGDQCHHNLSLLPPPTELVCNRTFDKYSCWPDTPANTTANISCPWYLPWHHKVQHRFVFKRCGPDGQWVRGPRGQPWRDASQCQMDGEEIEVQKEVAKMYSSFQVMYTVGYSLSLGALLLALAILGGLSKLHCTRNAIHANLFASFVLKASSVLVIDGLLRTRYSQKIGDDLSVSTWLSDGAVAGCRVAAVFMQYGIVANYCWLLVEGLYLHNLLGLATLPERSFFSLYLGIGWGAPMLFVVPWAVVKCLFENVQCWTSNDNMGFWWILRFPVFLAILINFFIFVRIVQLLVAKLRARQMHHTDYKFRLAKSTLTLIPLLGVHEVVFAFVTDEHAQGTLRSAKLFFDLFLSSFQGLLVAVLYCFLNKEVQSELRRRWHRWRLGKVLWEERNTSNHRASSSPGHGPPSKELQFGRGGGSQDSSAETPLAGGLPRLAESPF

In general, EC50 refers to the midpoint of the concentration-response curve. As a reminder, the AUC(0-inf) is total exposure, with the tail of the curve extrapolated. Low values mean less exposure, high ones more exposure. In general, AUC(0-t) refers to the area under the concentration-time curve up to a stated or last time point. Higher therefore signals more exposure. Usually Vd stands for the apparent volume that relates the amount in the body to the concentration in plasma or blood. A higher Vd goes with extensive tissue distribution. Usually clearance stands for the rate of elimination divided by the concentration. The low end stands for inefficient removal, the high end for efficient removal. Broadly, the half-life is the time needed for the level to fall by half in the phase considered. A lower half-life goes with rapid decline. The term Cmax denotes the maximum level reached in the sampled fluid or tissue. One may read the Tmax as the time at which the peak concentration occurs. Usually bioavailability stands for dose-corrected exposure relative to a reference, in per cent. Read a low bioavailability as poor availability. In the case of `CC[C@H](C)[C@@H]1NC(=O)[C@H](Cc2ccccc2)NC(=O)[C@@H](NC(=O)C(C)(C)NC(=O)[C@H](CCC(N)=O)NC(=O)[C@H](C)NC(=O)[C@H](CCCCNC(C)=O)NC(=O)[C@H](CCCCN)NC(=O)[C@H](CC(=O)O)NC(=O)[C@H](CC(C)C)NC(=O)[C@](C)(CC)NC(=O)[C@@H](NC(=O)[C@H](CO)NC(=O)[C@H](Cc2ccc(O)cc2)NC(=O)[C@H](CC(=O)O)NC(=O)[C@H](CO)NC(=O)[C@@H](NC(=O)[C@H](Cc2ccccc2F)NC(=O)[C@@H](NC(=O)CNC(=O)[C@H](CCC(N)=O)NC(=O)C(C)(C)NC(=O)[C@@H](N)Cc2ccc(O)cc2)[C@@H](C)O)[C@@H](C)O)[C@@H](C)CC)CSCC(=O)NCCN(C(=O)CCC(=O)NCCOCCOCC(=O)NCCOCCOCC(=O)NCCCC[C@H](NC(=O)CCCCCCCCCCCCCCCCCCC(=O)O)C(=O)O)CCNC(=O)CSC[C@@H](C(=O)NCC(=O)NCC(=O)N2CCC[C@H]2C(=O)N[C@@H](CO)C(=O)N[C@@H](CO)C(=O)NCC(=O)N[C@@H](C)C(=O)N2CCC[C@H]2C(=O)N2CCC[C@H]2C(=O)N2CCC[C@H]2C(=O)N[C@@H](CO)C(N)=O)NC(=O)[C@H](CC(C)C)NC(=O)[C@H](CC(C)C)NC(=O)[C@H](Cc2ccc(O)cc2)NC(=O)[C@H](CCC(=O)O)NC1=O` [TG52] (H-Y[Aib]QGT[Phe(2-F)]TSDYSI[Iva]LDKK(Ac)AQ[Aib]CFIEYLLCGGPSSGAPPPS-NH2; linker 21-28 via X1), the EC50 on GCGR worked out at 173 pM. Further, the EC50 on GLP-1R [1] was found to be 4.1 pM. Besides, at GIPR, the EC50 is 3.8 pM. In the data set “in vivo” (iv), this molecule displayed an AUC(0-inf) of 302 µg·h/mL, an AUC(0-t) of 278 µg·h/mL, a distribution volume (Vd) of 0.0626 L/kg and a clearance of 16 mL/day/kg. Also, the half-life in “in vivo” (iv) was 88.3 h. In “in vivo” (sc), the AUC(0-t) stood at 199 µg·h/mL, the highest concentration (Cmax) is 1760 ng/mL, the Tmax is 18.3 h and the bioavailability is 75.7%. This molecule had a half-life in “in vivo” (sc) of 97.2 h. Besides, the “serum albumin binding capacity” value on GLP-1R [2] is “a stronger serum albumin binding capacity”. Also, at GLP-1R [2] (EC50 (pM) 10% FBS, 10% FBS), the response was half-maximal at 861 pM (EC50). Also, at GLP-1R [2] (0% FBS, read-out: EC50 (pM) 0% FBS), the EC50 is 13.1 pM.
